Reference: PMC5491650, “Structure-Activity Relationships of Pentacyclic Triterpenoids as Potent and Selective Inhibitors against Human Carboxylesterase 1” (Frontiers in Pharmacology, 2017)
Like-named read-outs stand apart in the source and are kept apart here.

What was measured:
[1] = molecular target: T1, hCE1 (Homo sapiens, UniProt P23141); assay: hCE1 inhibition assay, DME hydrolysis in human liver microsomes; format: biochemical; parameters: tissue Celsis (Shanghai, China); host or cells: human liver microsomes (HLM);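 further: carboxylesterase inhibition read out as probe hydrolysis, with DME serving as hCE1 substrate and DDAB as hCE2 substrate, in DMSO below 2% (V/V)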
T1 sequence (P23141 18-567): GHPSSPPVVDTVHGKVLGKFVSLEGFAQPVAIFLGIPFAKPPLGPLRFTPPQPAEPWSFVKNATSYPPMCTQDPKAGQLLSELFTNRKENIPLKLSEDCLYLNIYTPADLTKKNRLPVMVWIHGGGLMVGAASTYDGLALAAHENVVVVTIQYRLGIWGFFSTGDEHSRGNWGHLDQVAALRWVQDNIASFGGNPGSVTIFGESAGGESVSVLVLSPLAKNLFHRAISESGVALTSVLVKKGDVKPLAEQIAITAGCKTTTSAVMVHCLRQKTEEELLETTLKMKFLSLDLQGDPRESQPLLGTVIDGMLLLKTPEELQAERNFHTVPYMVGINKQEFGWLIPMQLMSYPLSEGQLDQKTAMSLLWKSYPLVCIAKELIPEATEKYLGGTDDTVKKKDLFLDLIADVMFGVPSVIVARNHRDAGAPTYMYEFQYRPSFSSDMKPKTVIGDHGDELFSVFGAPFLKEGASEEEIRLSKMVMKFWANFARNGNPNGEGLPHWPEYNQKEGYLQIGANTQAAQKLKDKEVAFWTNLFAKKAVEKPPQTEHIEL
Procedure: (§1) All fluorescence-based assays were performed on Synergy H^1 Hybrid Multi-Mode Microplate Reader (BioTek, USA).
(§2) The inhibitory effects toward CEs were assayed using DME and DDAB as the specific probe substrates for hCE1 and hCE2, respectively. […] Control incubations without BNPP were also performed. After incubation, ice-cold acetonitrile (equal volume of incubation mixture, 200 μL) was added to terminate the reaction. The mixture was then centrifuged at 20,000 g for 20 min at 4°C. All these compounds dissolved in DMSO, and the final concentration of DMSO was <2% (V/V). Aliquots of the supernatant were then taken for further microplate reader analyses. […] First, each of the potential esterase inhibitors was pre-incubated with HLM at 37°C for 10 min with shaking in microplate reader. Then DME was added to start the reaction. After incubation at 37°C for 10 min in a shaking bath, LDR (equal volume of incubation mixture, 50 μL) was added to terminate the reaction, and luminescence measurements were conducted as described above.

[2] = molecular target: T2, hCE2 (Homo sapiens, UniProt O00748); assay: hCE2 inhibition assay, DDAB hydrolysis in human liver microsomes; format: biochemical
T2 construct: tissue Celsis (Shanghai, China); host or cells: human liver microsomes (HLM)
T2 sequence (O00748 27-559): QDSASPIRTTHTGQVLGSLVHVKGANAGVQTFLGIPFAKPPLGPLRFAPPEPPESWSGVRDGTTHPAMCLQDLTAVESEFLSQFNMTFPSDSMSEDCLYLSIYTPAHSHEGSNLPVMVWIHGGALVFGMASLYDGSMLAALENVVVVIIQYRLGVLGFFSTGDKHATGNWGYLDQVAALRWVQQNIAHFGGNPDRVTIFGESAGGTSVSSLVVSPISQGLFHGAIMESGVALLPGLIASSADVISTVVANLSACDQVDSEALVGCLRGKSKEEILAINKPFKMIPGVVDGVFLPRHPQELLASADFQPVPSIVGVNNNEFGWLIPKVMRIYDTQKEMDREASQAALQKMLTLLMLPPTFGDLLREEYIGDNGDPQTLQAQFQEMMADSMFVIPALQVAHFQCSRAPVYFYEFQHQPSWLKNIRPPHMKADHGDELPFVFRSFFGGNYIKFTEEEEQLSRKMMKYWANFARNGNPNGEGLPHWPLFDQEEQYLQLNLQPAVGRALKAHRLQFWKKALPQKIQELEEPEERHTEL
Procedure: as §1, §2

[3] = DME as probe substrate, HLM, averages of at least three experiments, read-out: IC50 (hCE1)
[4] = log of the experimental IC50 in μM, used for 3D-QSAR
[5] = DDAB as probe substrate, HLM, averages of at least three experiments, read-out: IC50 (hCE2)

Row | IC50 [1, 3] | Observed Log(IC50_hCE1) [1, 4] | IC50 [2, 5] | Structure (SMILES) | other results
1 | 0.28 µM | -0.5528 μM |  | CC1(C)CC[C@]2(C(=O)O)CC[C@]3(C)C(=CC[C@@H]4[C@@]5(C)CC[C@H](O)C(C)(C)[C@@H]5CC[C@]43C)[C@@H]2C1 [Compound 1, oleanolic acid] | 
2 | 0.24 µM | -0.6198 μM |  | C[C@H]1[C@H](C)CC[C@]2(C(=O)O)CC[C@]3(C)C(=CC[C@@H]4[C@@]5(C)CC[C@H](O)C(C)(C)[C@@H]5CC[C@]43C)[C@H]12 [Compound 2, ursolic acid] | 
3 | > 400 µM |  |  | C[C@H]1[C@H](C)CC[C@]2(C)CC[C@]3(C)C(=CC[C@@H]4[C@@]5(C)CC[C@@H](O)[C@](C)(C(=O)O)[C@@H]5CC[C@]43C)[C@H]12 [Compound 5, β-boswellic acid] | 
4 | 124 µM | 2.092 μM |  | C[C@H]1[C@H](C)CC[C@]2(C)CC[C@]3(C)C(=CC(=O)[C@@H]4[C@@]5(C)CC[C@@H](O)[C@](C)(C(=O)O)[C@@H]5CC[C@]43C)[C@H]12 [Compound 6, 11-keto-β-boswellic acid] | 
5 | 6.23 µM | 0.7945 μM | 5.7 µM | COC(=O)C12CCC(C)(C)CC1C1=CCC3C4(C)CCC(O)C(C)(C)C4CCC3(C)C1(C)CC2 (stereo not drawn) [Compound 17, 3β-hydroxy-olean-12-en-28-oic acidmethyl ester] | 
6 | 3.21 µM | 0.5065 μM | 4.11 µM | CC1(C)CCC2(C(N)=O)CCC3(C)C(=CCC4C5(C)CCC(O)C(C)(C)C5CCC43C)C2C1 (stereo not drawn) [Compound 18, 3β-hydroxy-olean-12-en-28-amide] | 
7 | 0.037 µM | -1.4318 μM | 9.56 µM | CC1CCC2(C(=O)O)CCC3(C)C(=CCC4C5(C)CCC(=O)C(C)(C)C5CCC43C)C2C1C (stereo not drawn) [Compound 21, 3-oxo-urs-12-en-28-oic acid] | 
8 | 1.83 µM | 0.2625 μM | 11.9 µM | COC(=O)C12CCC(C)C(C)C1C1=CCC3C4(C)CCC(O)C(C)(C)C4CCC3(C)C1(C)CC2 (stereo not drawn) [Compound 23, 3β-hydroxy-urs-12-en-28-oic acid methyl ester] | 
9 | 0.9 µM | -0.04576 μM | > 100 µM | COC(=O)C12CCC(C)C(C)C1C1=CCC3C4(C)CCC(=O)C(C)(C)C4CCC3(C)C1(C)CC2 (stereo not drawn) [Compound 24, 3-oxo-urs-12-en-28-oic acid methyl ester] | 
10 | 33.2 µM | 1.521 μM | 11.9 µM | COC(=O)C12CCC(C)C(C)C1C1=CC(=O)C3C4(C)CCC(=O)C(C)(C)C4CCC3(C)C1(C)CC2 (stereo not drawn) [Compound 25, 3,11-dioxo-urs-12-en-28-oic acid methyl ester] | 

The remaining lines, values behind:

Row | Structure (SMILES) | IC50 [1, 3] | Observed Log(IC50_hCE1) [1, 4] | IC50 [2, 5] | other results
11 | CC1(C)CCC2(C(=O)O)C(O)CC3(C)C(=CCC4C5(C)CC(O)C(O)C(C)(CO)C5CCC43C)C2C1 (stereo not drawn) [Compound 3, polygalacic acid] | 64.7 µM | 1.811 μM | > 100 µM | 
12 | CC1(C)[C@@H](O)CC[C@]2(C)[C@H]3C(=O)C=C4[C@@H]5C[C@@](C)(C(=O)O)CC[C@]5(C)CC[C@@]4(C)[C@]3(C)CC[C@@H]12 [Compound 4, glycyrrhetic acid] | 13 µM | 1.1126 μM |  | 
13 | CC1=C(O)C(=O)C=C2C1=CC=C1[C@@]2(C)CC[C@@]2(C)[C@@H]3C[C@](C)(C(=O)O)CC[C@]3(C)CC[C@]12C [Compound 7, celastrol] | 4.43 µM | 0.6464 μM |  | 
14 | CC(C)=CCCC(C)(O)C1CCC2(C)C1C(O)CC1C3(C)CCC(O)C(C)(C)C3CCC12C (stereo not drawn) [Compound 8] | > 500 µM |  |  | 
15 | CC(C)=CCCC(C)(O)C1CCC2(C)C1C(O)CC1C3(C)CCC(O)C(C)(C)C3C(O)CC12C (stereo not drawn) [Compound 9] | > 500 µM |  |  | 
16 | C=C(CCC(C(=O)O)C1C(O)CC2(C)C3=C(CCC12C)C1(C)CCC(OC(C)=O)C(C)(C)C1CC3)C(C)C (stereo not drawn) [Compound 10] | 21.7 µM | 1.337 μM |  | 
17 | C=C(CCC(C(=O)O)C1C(O)CC2(C)C3=CCC4C(C)(CCC(OC(C)=O)C4(C)C)C3=CCC12C)C(C)C (stereo not drawn) [Compound 11] | 27.6 µM | 1.441 μM | > 100 µM | 
18 | C=C(CCC(C(=O)O)C1C(O)CC2(C)C3=CCC4C(C)(C)C(=O)CCC4(C)C3=CCC12C)C(C)C (stereo not drawn) [Compound 12] | 58.6 µM | 1.7679 μM | > 100 µM | 
19 | C[C@H](CC(=O)C[C@@H](C)[C@H]1C[C@H](O)[C@@]2(C)C3=C(C(=O)C[C@]12C)[C@@]1(C)CCC(=O)C(C)(C)[C@@H]1C[C@@H]3O)C(=O)O [Compound 13] |  |  |  | IC50 [1]: > 400 µM; IC50 [2]: > 100 µM
20 | C[C@H](CC(=O)C[C@@H](C)[C@H]1CC(=O)[C@@]2(C)C3=C(C(=O)C[C@]12C)[C@@]1(C)CC[C@H](O)C(C)(C)[C@@H]1C[C@@H]3O)C(=O)O [Compound 14] | > 400 µM |  | > 100 µM | 
21 | CC1(C)CCC2(C(=O)O)CCC3(C)C(=CCC4C5(C)CCC(=O)C(C)(C)C5CCC43C)C2C1 (stereo not drawn) [Compound 15, 3-oxo-olean-12-en-28-oic acid] | 0.13 µM |  | 16.1 µM | Observed Log(IC50_hCE1) [1]: -0.8861 μM; Selectivity [1]: 123.07
22 | CC1(C)CCC2(CO)CCC3(C)C(=CCC4C5(C)CCC(O)C(C)(C)C5CCC43C)C2C1 (stereo not drawn) [Compound 16, 3β-olean-12-ene-3,28-diol] | 2.41 µM | 0.382 μM | 6.12 µM | 
23 | CC(=O)OC1CCC2(C)C(CCC3(C)C2CC=C2C4CC(C)(C)CCC4(C(=O)O)CCC23C)C1(C)C (stereo not drawn) [Compound 19, 3β-O-acetyl-olean-12-en-28-oic acid] | 0.19 µM | -0.7212 μM | 10.2 µM | 
24 | CC1(C)CCC2(C(=O)O)CCC3(C)C(=CCC4C5(C)CCC(OC(=O)CCC(=O)O)C(C)(C)C5CCC43C)C2C1 (stereo not drawn) [Compound 20, 3β-O-(β-carboxypropionyl)-olean-12-en-28-oic acid] | 0.017 µM | -1.77 μM | 56 µM | selectivity over hCE2 ([1]; hCE1 versus hCE2, values of the text): 3296 fold
25 | CC1(C(=O)O)CCC2(C)CCC3(C)C(=CCC4C5(C)CCC(O)C(C)(C)C5CCC43C)C2C1 (stereo not drawn) [Compound 26] |  | 0.9513 μM |  | IC50 ([1]; IC50 (hCE1), DME as probe substrate, HLM, averages of at least three experiments): 8.94 µM
26 | CC1(C(=O)O)CCC2(C)CCC3(C)C(=CCC4C5(C)CCC(OC(=O)CCC(=O)O)C(C)(C)C5CCC43C)C2C1 (stereo not drawn) [Compound 27, 3β-O-(β-carboxypropionyl)-olean-12-en-30-oic acid] | 6.94 µM | 0.8414 μM | 3.16 µM | 
27 | O=[N+]([O-])c1ccc(OP(=O)(O)Oc2ccc([N+](=O)[O-])cc2)cc1 [Compound 28, Bis-p-nitrophenyl phosphate, reference compound] | 0.031 µM |  |  | 
